In ChEMBL document CHEMBL1149475, “Evaluation of antitumor properties of novel saframycin analogs in vitro and in vivo” (Bioorg Med Chem Lett, 2006):
Values belong to the molecule of their own block, whether it stands above or below them.

Key:
HCT-116 [1] = assay: Antiproliferative activity against human HCT116 cells; type: functional
DLD-1 = assay: Antiproliferative activity against human DLD1 cells; type: functional
PC-3 = assay: Antiproliferative activity against human PC3 cells; type: functional
A549 = assay: Antiproliferative activity against human A549 cells; type: functional
[2] = Cmax in Balb/C mouse at 0.5 mg/kg, iv and 2 mg/kg, ip; type: ADME, organism-based; conditions: in vivo
[3] = Clearance in Balb/C mouse at 0.5 mg/kg, iv and 2 mg/kg, ip; type: ADME, organism-based; conditions: in vivo
[4] = AUC in Balb/C mouse at 0.5 mg/kg, iv and 2 mg/kg, ip; type: ADME, organism-based; conditions: plasma
[5] = Alpha half life in Balb/C mouse at 0.5 mg/kg, iv and 2 mg/kg, ip; type: ADME, organism-based; conditions: in vivo
[6] = Beta half life in Balb/C mouse at 0.5 mg/kg, iv and 2 mg/kg, ip; type: ADME, organism-based; conditions: in vivo, read-out: beta t1/2
[7] = Bioavailability in Balb/C mouse at 0.5 mg/kg, iv and 2 mg/kg, ip; type: ADME, organism-based; conditions: in vivo
HCT-116 [8] = assay: Antitumor activity against human HCT116 cells transplanted in mouse at 2.5 mg/kg, ip; type: functional; conditions: HCT-116, ip, route intraperitoneal, read-out: TGI
Mus musculus [9] = assay: Toxicity in mouse at 1.25 mg/kg, ip assessed as loss of body weight; type: organism-based; set-up: dose 1.25 mg/kg, route intraperitoneal; conditions: in vivo
Mus musculus [10] = assay: Toxicity in mouse at 2.5 mg/kg, ip assessed as loss of body weight; type: organism-based; set-up: dose 2.5 mg/kg, route intraperitoneal; conditions: in vivo
HCT-116 [11] = assay: Antitumor activity against human HCT116 cells transplanted in mouse at 1.25 mg/kg, ip; type: functional; conditions: HCT-116, ip, route intraperitoneal, read-out: TGI
A-375 = assay: Antiproliferative activity against human A375 cells; type: functional
HT-29 = assay: Antiproliferative activity against human HT29 cells; type: functional
CWR22R = assay: Antiproliferative activity against human CWR22Rv1 cells; type: functional; conditions: 22Rv1
DU-145 = assay: Antiproliferative activity against human DU145 cells; type: functional
NCI-H1299 = assay: Antiproliferative activity against human H1299 cells; type: functional
MDA-MB-231 = assay: Antiproliferative activity against human […] cells; type: functional
HeLa = assay: Antiproliferative activity against human HeLa-S3 cells; type: functional
HT-1080 = assay: Antiproliferative activity against human HT1080 cells; type: functional
BXPC-3 = assay: Antiproliferative activity against human BxPC3 cells; type: functional
NALM-6 = assay: Antiproliferative activity against human Nalm6 cells; type: functional
P12-Ichikawa = assay: Antiproliferative activity against human P12 cells; type: functional

SMILES: COc1c(C)c(OC)c2c(c1O)[C@@H]1[C@@H]3Cc4c(OC)c(C)c(OC)c(O)c4[C@H](CNC(=O)c4ccc(CNS(=O)(=O)c5cccc6c(N(C)C)cccc56)cc4)N3[C@@H](C#N)[C@H](C2)N1C
GI50 (HCT-116 [1]): 201 nM

SMILES: COc1c(C)c(OC)c2c(c1O)[C@@H]1[C@@H]3Cc4c(OC)c(C)c(OC)c(O)c4[C@H](CNC(=O)c4cc5cc(OC6CCOCC6)ccc5o4)N3C[C@H](C2)N1C
GI50 (HCT-116 [1]): > 300 nM

SMILES: COC1=C(C)C(=O)C2=C(C1=O)[C@@H]1[C@@H]3CC4=C(C(=O)C(OC)=C(C)C4=O)[C@H](CNC(=O)c4cc5cc(OC6CCOCC6)ccc5o4)N3[C@@H](C#N)[C@H](C2)N1C
GI50 (DLD-1): 26.5 nM
GI50 (HCT-116 [1]): 17.3 nM
GI50 (PC-3): 16.5 nM

SMILES: COc1c(C)c(OC)c2c(c1O)[C@@H]1[C@@H]3Cc4c(OC)c(C)c(OC)c(O)c4[C@H](CNC(=O)c4ccc5ccccc5n4)N3[C@@H](C#N)[C@H](C2)N1C
GI50 (A-375): 1.3 nM
GI50 (DLD-1): 8.1 nM
GI50 (HCT-116 [1]): 5.8 nM
GI50 (HT-29): 7.5 nM
GI50 (CWR22R): 1.1 nM
GI50 (DU-145): 6.9 nM
GI50 (PC-3): 6.2 nM
GI50 (A549): 10.7 nM
GI50 (NCI-H1299): 6.2 nM
GI50 (MDA-MB-231): 4.5 nM
GI50 (HeLa): 6.6 nM
GI50 (HT-1080): 5 nM
GI50 (BXPC-3): 5.8 nM
GI50 (NALM-6): 0.6 nM
GI50 (P12-Ichikawa): 1.9 nM
Cmax [2]: 1100 nM
clearance [3]: 72 mL/min/kg
AUC [4]: 0.167 µM·h
half-life [5]: 3.5 min
half-life [6]: 17 min
bioavailability [7]: 46%

SMILES: COc1c(C)c(OC)c2c(c1O)[C@@H]1[C@@H]3Cc4c(OC)c(C)c(OC)c(O)c4[C@H](CNC(=O)c4cc5cc(OCCN6CCOCC6)ccc5o4)N3[C@@H](C#N)[C@H](C2)N1C
GI50 (DLD-1): 22.4 nM
GI50 (HCT-116 [1]): 8.1 nM
GI50 (PC-3): 11.7 nM
GI50 (A549): 57.5 nM

Now those with a lower GI50 (HCT-116 [1]), led by results:

GI50 (DLD-1): 8.3 nM
GI50 (HCT-116 [1]): 3.2 nM
GI50 (PC-3): 2.7 nM
GI50 (A549): 18.9 nM
Cmax [2]: 3700 nM
clearance [3]: 45 mL/min/kg
AUC [4]: 0.483 µM·h
half-life [5]: 3 min
half-life [6]: 25 min
bioavailability [7]: 38%
SMILES: COc1c(C)c(OC)c2c(c1O)[C@@H]1[C@@H]3Cc4c(OC)c(C)c(OC)c(O)c4[C@H](CNC(=O)c4cc5cc(OC6CCOCC6)ccc5o4)N3[C@@H](C#N)[C@H](C2)N1C
inhibition in vivo at 2.5 mg/kg (HCT-116 [8]): 96%
Activity (Mus musculus [9]): Active
Activity (Mus musculus [10]): Active
inhibition in vivo at 1.25 mg/kg (HCT-116 [11]): 68%

GI50 (HCT-116 [1]): 5.5 nM
SMILES: COc1c(C)c(OC)c2c(c1O)[C@@H]1[C@@H]3Cc4c(OC)c(C)c(OC)c(O)c4[C@H](CNC(=O)c4cc5ccccc5o4)N3[C@@H](C#N)[C@H](C2)N1C

GI50 (DLD-1): 10.4 nM
GI50 (HCT-116 [1]): 5.5 nM
GI50 (PC-3): 5 nM
GI50 (A549): 20.6 nM
SMILES: COc1c(C)c(OC)c2c(c1O)[C@@H]1[C@@H]3Cc4c(OC)c(C)c(OC)c(O)c4[C@H](CNC(=O)c4cc5cc(OC6CCOCC6)ccc5o4)N3[C@@H](O)[C@H](C2)N1C
